{
  "source": "PubChem BioAssay (NCI)",
  "assay_in_all_cases": "NCI tumour cell line growth inhibition, 48 h",
  "key": {"M19-MEL melanoma": {"test_system": "M19-MEL melanoma"}, "DMS 114 small cell lung": {"test_system": "DMS 114 small cell lung"}, "RXF-631 renal": {"test_system": "RXF-631 renal"}, "LXFL 529 NSCLC": {"test_system": "LXFL 529 NSCLC"}, "DMS 273 small cell lung": {"test_system": "DMS 273 small cell lung"}, "XF 498 CNS": {"test_system": "XF 498 CNS"}, "DLD-1 colon": {"test_system": "DLD-1 colon"}, "SN12K1 renal": {"test_system": "SN12K1 renal"}, "P388 leukemia": {"test_system": "P388 leukemia"}, "P388/ADR leukemia": {"test_system": "P388/ADR leukemia"}},
  "note": "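Where inhibition never reached the appropriate level, the endpoint shown equals the highest concentration tested. Otherwise, values were interpolated linearly from a five-concentration, 48-hour dose response in 96-well plates. TGI: total growth inhibition.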",
  "data": [
    {"compound": "CC(C)N1CC2CC(CN(C(=O)c3ccccc3)C2)C1", "values": [
      {"measurement": "TGI", "setting": "M19-MEL melanoma", "value": "> 100", "unit": "µM"},
      {"measurement": "TGI", "setting": "DMS 114 small cell lung", "value": "> 100", "unit": "µM"},
      {"measurement": "TGI", "setting": "RXF-631 renal", "value": "> 100", "unit": "µM"},
      {"measurement": "TGI", "setting": "LXFL 529 NSCLC", "value": "> 100", "unit": "µM"},
      {"measurement": "TGI", "setting": "DMS 273 small cell lung", "value": "> 100", "unit": "µM"},
      {"measurement": "TGI", "setting": "XF 498 CNS", "value": "> 100", "unit": "µM"}
    ]},
    {"compound": "COC(=O)C1=C(C(=O)OC)SC(=CC#CC=C2SC(C(=O)OC)=C(C(=O)OC)S2)S1", "values": [
      {"measurement": "TGI", "setting": "M19-MEL melanoma", "value": "> 100", "unit": "µM"},
      {"measurement": "TGI", "setting": "DMS 114 small cell lung", "value": "> 60.7", "unit": "µM"},
      {"measurement": "TGI", "setting": "LXFL 529 NSCLC", "value": "> 57.4", "unit": "µM"},
      {"measurement": "TGI", "setting": "DMS 273 small cell lung", "value": 38.4, "unit": "µM"},
      {"measurement": "TGI", "setting": "XF 498 CNS", "value": 19.1, "unit": "µM"},
      {"measurement": "TGI", "setting": "DLD-1 colon", "value": "> 54", "unit": "µM"}
    ]},
    {"compound": "CSc1cc(=O)n2c3ccccc3c3ccnc1c32", "values": [
      {"measurement": "TGI", "setting": "M19-MEL melanoma", "value": "> 100", "unit": "µM"},
      {"measurement": "TGI", "setting": "DMS 114 small cell lung", "value": "> 100", "unit": "µM"},
      {"measurement": "TGI", "setting": "SN12K1 renal", "value": "> 100", "unit": "µM"},
      {"measurement": "TGI", "setting": "P388 leukemia", "value": "> 100", "unit": "µM"},
      {"measurement": "TGI", "setting": "DMS 273 small cell lung", "value": "> 100", "unit": "µM"},
      {"measurement": "TGI", "setting": "P388/ADR leukemia", "value": "> 100", "unit": "µM"},
      {"measurement": "TGI", "setting": "DLD-1 colon", "value": "> 100", "unit": "µM"}
    ]},
    {"compound": "CCOC(=O)C1(C#N)C(c2ccccc2)CC(O)(c2ccc(Cl)cc2)C(C(=O)c2ccc(Cl)cc2)C1c1ccccc1", "note": "(stereo not given)", "values": [
      {"measurement": "TGI", "setting": "M19-MEL melanoma", "value": "> 100", "unit": "µM"},
      {"measurement": "TGI", "setting": "DMS 114 small cell lung", "value": "> 100", "unit": "µM"},
      {"measurement": "TGI", "setting": "LXFL 529 NSCLC", "value": "> 100", "unit": "µM"},
      {"measurement": "TGI", "setting": "DMS 273 small cell lung", "value": "> 100", "unit": "µM"},
      {"measurement": "TGI", "setting": "XF 498 CNS", "value": "> 100", "unit": "µM"},
      {"measurement": "TGI", "setting": "DLD-1 colon", "value": "> 100", "unit": "µM"}
    ]},
    {"compound": "CS(=O)(=O)CSCSSCS(C)(=O)=O", "values": [
      {"measurement": "TGI", "setting": "M19-MEL melanoma", "value": "> 100", "unit": "µM"},
      {"measurement": "TGI", "setting": "DMS 114 small cell lung", "value": "> 92.1", "unit": "µM"},
      {"measurement": "TGI", "setting": "RXF-631 renal", "value": "> 100", "unit": "µM"},
      {"measurement": "TGI", "setting": "LXFL 529 NSCLC", "value": 42.5, "unit": "µM"},
      {"measurement": "TGI", "setting": "DMS 273 small cell lung", "value": "> 81.3", "unit": "µM"},
      {"measurement": "TGI", "setting": "XF 498 CNS", "value": 75.6, "unit": "µM"},
      {"measurement": "TGI", "setting": "DLD-1 colon", "value": "> 75.4", "unit": "µM"}
    ]},
    {"compound": "CCOC(=O)c1s/c(=N\\Nc2nc3ccccc3cc2C2OCCO2)n(Cc2ccccc2)c1C", "values": [
      {"measurement": "TGI", "setting": "M19-MEL melanoma", "value": "> 100", "unit": "µM"},
      {"measurement": "TGI", "setting": "DMS 114 small cell lung", "value": "> 100", "unit": "µM"},
      {"measurement": "TGI", "setting": "RXF-631 renal", "value": "> 100", "unit": "µM"},
      {"measurement": "TGI", "setting": "LXFL 529 NSCLC", "value": "> 100", "unit": "µM"},
      {"measurement": "TGI", "setting": "DMS 273 small cell lung", "value": "> 100", "unit": "µM"},
      {"measurement": "TGI", "setting": "XF 498 CNS", "value": "> 100", "unit": "µM"},
      {"measurement": "TGI", "setting": "DLD-1 colon", "value": "> 100", "unit": "µM"}
    ]},
    {"compound": "COC(=O)[C@@H]1CCCCC[C@H]2C(CO)=C(C)C(=O)C12", "note": "(stereo not given in full)", "values": [
      {"measurement": "TGI", "setting": "M19-MEL melanoma", "value": "> 100", "unit": "µM"},
      {"measurement": "TGI", "setting": "DMS 114 small cell lung", "value": "> 100", "unit": "µM"},
      {"measurement": "TGI", "setting": "LXFL 529 NSCLC", "value": "> 100", "unit": "µM"},
      {"measurement": "TGI", "setting": "DMS 273 small cell lung", "value": "> 100", "unit": "µM"},
      {"measurement": "TGI", "setting": "XF 498 CNS", "value": "> 100", "unit": "µM"},
      {"measurement": "TGI", "setting": "DLD-1 colon", "value": "> 100", "unit": "µM"}
    ]}
  ]
}
